Test results: patent EP4653441A1, “SALT OF ANTIDEPRESSANT COMPOUND, AND PREPARATION METHOD THEREFOR, PHARMACEUTICAL COMPOSITION CONTAINING SAME AND USE THEREOF” (Vigonvita Life Sciences Co., Ltd., priority 2023, dated 2024)
Converted amounts (≈) assume the structure as drawn. Read-outs that look alike come from different tables or passages of the source.

Legend:
[1] = Solubility test in water by HPLC (external standard); type: physicochemical; conditions: 37°C, shaken 30 minutes
Description: 1. X-ray Powder Diffraction (XRPD) Test Method: • Instrument: Bruker D8 advance X-ray polycrystalline diffractometer; Target: Cu-Kα (40 kV, 40 mA); Sample-to-detector distance: 30 cm; Scanning type: two-axis linkage; Scanning step width: 0.02°; Scanning range: 3°~40°; Scanning step: 0.1 s. • In general, diffraction angles (2θ values) in XRPD may produce errors within a range of ± 0.2°, and thus numerical values relating to diffraction angles in the present invention should be understood to also encompass numerical values within a range of about ± 0.2°. Therefore, the present invention not only covers the crystal form that completely matches the characteristic signal peak in the specific XRPD pattern, but also covers the crystal form that has an error of about ± 0.2° with the characteristic signal peak in the specific XRPD pattern. 2. Solubility Test Method: About 20 mg of the test sample was taken and placed in a 1.5 ml sample tube, added with 1 ml of water, then placed in a shaker, shaken at 37°C for 30 minutes, the sample tube was taken and centrifuged in a centrifuge for 2 minutes, and the supernatant was taken for HPLC analysis.

[2] = Stability test of the salts (high temperature / high humidity, 14 days); type: physicochemical
Description: (§1) 3. Hygroscopicity Measurement Method: The test sample was placed for 24 hours at 25°C and 92.5% RH, and then the weight gain by moisture absorption was measured. 4. Stability Test Method: The test sample was placed in a suitable clean container for 14 days under a high temperature (60°C), or a high humidity (40°C, a relative humidity of 75%) condition, and it was sampled on day 0 and day 14 to detect the purity and impurities of the test sample.

serotonin reuptake = serotonin reuptake (Homo sapiens, UniProt P31645); conditions: read-out: serotonin reuptake inhibition concentration (IC50); cited from earlier work
5-HT3 receptor = target: T1, 5-HT3 receptor (Homo sapiens, UniProt P46098); conditions: cited from earlier work
T1 sequence (P46098 24-478): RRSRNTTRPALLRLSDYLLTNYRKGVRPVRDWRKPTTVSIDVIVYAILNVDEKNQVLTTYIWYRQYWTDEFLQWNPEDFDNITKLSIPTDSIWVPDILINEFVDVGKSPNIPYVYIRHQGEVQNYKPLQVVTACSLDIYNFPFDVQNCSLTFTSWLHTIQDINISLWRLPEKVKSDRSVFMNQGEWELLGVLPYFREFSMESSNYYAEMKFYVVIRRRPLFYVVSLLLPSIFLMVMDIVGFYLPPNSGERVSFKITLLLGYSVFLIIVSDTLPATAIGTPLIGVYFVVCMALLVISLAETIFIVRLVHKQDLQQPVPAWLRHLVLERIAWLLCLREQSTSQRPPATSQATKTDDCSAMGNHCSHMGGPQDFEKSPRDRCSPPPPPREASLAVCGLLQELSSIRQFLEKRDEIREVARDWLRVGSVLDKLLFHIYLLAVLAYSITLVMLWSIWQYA

[3] = cited from earlier work
[4] = Hygroscopicity measurement; type: physicochemical; conditions: 25°C, 92.5% RH, 24 hours
Description: as §1

[5] = 60°C/14 days (aluminum foil pouch)

Sequence of serotonin reuptake (P31645 whole entry): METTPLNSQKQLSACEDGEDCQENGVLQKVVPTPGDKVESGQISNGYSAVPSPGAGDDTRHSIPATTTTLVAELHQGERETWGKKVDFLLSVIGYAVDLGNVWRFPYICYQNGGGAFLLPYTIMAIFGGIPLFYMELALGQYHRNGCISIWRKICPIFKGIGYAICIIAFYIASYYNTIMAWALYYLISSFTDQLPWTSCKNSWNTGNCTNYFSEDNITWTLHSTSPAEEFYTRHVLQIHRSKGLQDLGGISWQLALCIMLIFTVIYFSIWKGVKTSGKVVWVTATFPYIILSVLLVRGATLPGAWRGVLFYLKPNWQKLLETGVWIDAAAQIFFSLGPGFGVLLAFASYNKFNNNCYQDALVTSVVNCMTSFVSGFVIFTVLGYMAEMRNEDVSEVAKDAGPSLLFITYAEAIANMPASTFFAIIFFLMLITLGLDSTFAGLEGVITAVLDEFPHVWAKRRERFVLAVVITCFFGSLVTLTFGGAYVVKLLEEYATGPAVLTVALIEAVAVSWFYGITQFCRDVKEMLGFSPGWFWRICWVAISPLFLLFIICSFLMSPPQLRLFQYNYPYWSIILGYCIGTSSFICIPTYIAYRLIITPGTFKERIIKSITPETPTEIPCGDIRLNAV

Structure (SMILES) | Solubility [1] | weight gain by moisture absorption [4] | Total Impurity (%) ([2]; 40°C/75% RH/14 days) | Total Impurity (%) ([2]; 60°C/14 days) | Total Impurity (%) [2, 5] | Total Impurity (%) ([2]; Day 0) | other results
CN1CC2CN(c3ccc4ccccc4c3)CC2C1 (stereo not drawn) [compound of formula (I), 2-methyl-5-(naphthalen-2-yl)octahydropyrrolo[3,4-c]pyrrole] | – | – | – | – | – | – | Solubility ([1]; listed as basic compound of formula (I)): Almost Insoluble; Total Impurity (%) ([2]; 40°C/75% RH/14 days, listed as Basic compoun d): 0.41%; Total Impurity (%) ([2]; 60°C/14 days (aluminum foil pouch), listed as Basic compoun d): 0.31%; Total Impurity (%) ([2]; 60°C/14 days, listed as Basic compoun d): 0.23%; Total Impurity (%) ([2]; Day 0, listed as Basic compoun d): 0.15%; IC50 (serotonin reuptake): < 10 nM; affinity for 5-HT3 receptor (5-HT3 receptor): high affinity; Solubility [3]: low
CN1CC2CN(c3ccc4ccccc4c3)CC2C1 (single isomer, unassigned) [Example 5, 2-methyl-5-(naphthalen-2-yl)octahydropyrrolo[3,4-c]pyrrole] | 4 mg/mL (≈ 15.9 mM) | 1.21% | – | – | – | – | –
CN1CC2CN(c3ccc4ccccc4c3)CC2C1 (single isomer, unassigned) [Example 2, 2-methyl-5-(naphthalen-2-yl)octahydropyrrolo[3,4-c]pyrrole] | 11 mg/mL (≈ 43.6 mM) | 0.74% | 0.31% | 0.37% | 0.36% | 0.35% | –
CN1CC2CN(c3ccc4ccccc4c3)CC2C1 (single isomer, unassigned) [Example 6, 2-methyl-5-(naphthalen-2-yl)octahydropyrrolo[3,4-c]pyrrole] | – | 1.26% | – | – | – | – | –
CN1CC2CN(c3ccc4ccccc4c3)CC2C1 (single isomer, unassigned) [Example 4, 2-methyl-5-(naphthalen-2-yl)octahydropyrrolo[3,4-c]pyrrole] | 3.5 mg/mL (≈ 13.9 mM) | 6.74% | 0.44% | 0.22% | 0.24% | 0.21% | –
CN1CC2CN(c3ccc4ccccc4c3)CC2C1 (stereo not drawn) [Example 3, 2-methyl-5-(naphthalen-2-yl)octahydropyrrolo[3,4-c]pyrrole] | – | To be liquid | – | – | – | – | –
CN1CC2CN(c3ccc4ccccc4c3)CC2C1 (single isomer, unassigned) [Example 7, 2-methyl-5-(naphthalen-2-yl)octahydropyrrolo[3,4-c]pyrrole] | 15 mg/mL (≈ 59.4 mM) | 0.64% | 0.17% | 0.18% | 0.20% | 0.14% | –
CN1CC2CN(c3ccc4ccccc4c3)CC2C1 (single isomer, unassigned) [Example 1, 2-methyl-5-(naphthalen-2-yl)octahydropyrrolo[3,4-c]pyrrole] | >100 mg/mL | 1.6% | 0.15% | 0.19% | 0.19% | 0.13% | –
